{
  "source": "patent US7618816B2",
  "about": "“Metal-binding therapeutic peptides” (Ontherix, Inc., priority 2005, dated 2009)",
  "assay_in_all_cases": "Uptake of SA-HRP::MBD peptide complexes",
  "format_in_all_cases": "cell-based, human",
  "key": {"231": {"tested_on": "231", "procedure": "(§1) HEK293 kidney cell line and 54 tumor cell lines obtained from the National Cancer Institute and passaged in RPMI1640 cell culture medium supplemented with 10% fetal bovine serum and 10 uM FeCl2. Uptake of streptavidin-horseradish peroxidase (SA-HRP) conjugate and of various SA-HRP::MBD peptide complexes was determined as described (Singh et al. J Biol Chem. 279 (1):477-87 [2004]) using biotinylated MBD9 ([…]) (SEQ ID NO: 10) and MBD21 ([…]) (SEQ ID NO: 4) peptides and SA-HRP. Nuclear and cytoplasmic localization of these proteins was also determined in each case. […] In order to establish the underlying molecular mechanism for this variability, we cross-linked MBD21 peptide to the following cell surface markers at 4 degrees Celsius as previously described (Singh et al. J Biol Chem. 279 (1):477-87 [2004]): transferrin receptor 1, caveolin 1, PCNA, integrins alpha v, 2, 5 and 6, integrins beta 1, 3 and 5. […] Based on the strength of these correlations, it was possible to derive crude predictive formulae for MBD-mediated uptake based on the rate of cross-linking to surface markers. Such predictive formulas could form the basis for a diagnostic procedure to select appropriate targets for MBD-based therapies."}, "786-O": {"tested_on": "786-O", "procedure": "as §1"}, "A498": {"tested_on": "A498", "procedure": "as §1"}, "A549": {"tested_on": "A549", "procedure": "as §1"}, "A704": {"tested_on": "A704", "procedure": "as §1"}, "CAKI-1": {"tested_on": "CAKI-1", "procedure": "as §1"}, "CCRF-CEM": {"tested_on": "CCRF-CEM", "procedure": "as §1"}, "CHA-59": {"tested_on": "CHA-59", "procedure": "as §1"}, "COLO 205": {"tested_on": "COLO 205", "procedure": "as §1"}, "DU-145": {"tested_on": "DU-145", "procedure": "as §1"}, "HCT-15": {"tested_on": "HCT-15", "procedure": "as §1"}, "HOP 18": {"tested_on": "HOP 18", "procedure": "as §1"}, "HOP 92": {"tested_on": "HOP 92", "procedure": "as §1"}, "HT-29": {"tested_on": "HT-29", "procedure": "as §1"}, "KM12": {"tested_on": "KM12", "procedure": "as §1"}, "Lewis Lung": {"tested_on": "Lewis Lung", "procedure": "as §1"}, "MCF 7": {"tested_on": "MCF 7", "procedure": "as §1"}, "NCI-H23": {"tested_on": "NCI-H23", "procedure": "as §1"}, "NCI-H460": {"tested_on": "NCI-H460", "procedure": "as §1"}, "NCI-H522": {"tested_on": "NCI-H522", "procedure": "as §1"}, "NHI-H322M": {"tested_on": "NHI-H322M", "procedure": "as §1"}, "OVCAR-3": {"tested_on": "OVCAR-3", "procedure": "as §1"}, "OVCAR-4": {"tested_on": "OVCAR-4", "procedure": "as §1"}, "OVCAR-5": {"tested_on": "OVCAR-5", "procedure": "as §1"}, "OVCAR-8": {"tested_on": "OVCAR-8", "procedure": "as §1"}, "RPMI 8226": {"tested_on": "RPMI 8226", "procedure": "as §1"}, "SHP-77": {"tested_on": "SHP-77", "procedure": "as §1"}, "SK-0V-3": {"tested_on": "SK-0V-3", "procedure": "as §1"}, "SN12C": {"tested_on": "SN12C", "procedure": "as §1"}, "SW-620": {"tested_on": "SW-620", "procedure": "as §1"}, "TK-10": {"tested_on": "TK-10", "procedure": "as §1"}, "WIDR": {"tested_on": "WIDR", "procedure": "as §1"}},
  "data": [
    {"sequence": "KKGFYKKKKQCRPSKGRKRGFCWNGRK [MBD9]", "values": [
      {"measurement": "SA-HRP uptake, Cyt.", "setting": "231; 231, cytoplasmic", "value": 9.6, "unit": "ng"},
      {"measurement": "SA-HRP uptake, Nuc.", "setting": "231; 231, nuclear", "value": 2.6, "unit": "ng"},
      {"measurement": "SA-HRP uptake, Cyt.", "setting": "786-O; cytoplasmic", "value": 2.9, "unit": "ng"},
      {"measurement": "SA-HRP uptake, Nuc.", "setting": "786-O; nuclear", "value": 3.9, "unit": "ng"},
      {"measurement": "SA-HRP uptake, Cyt.", "setting": "A498; A498, cytoplasmic", "value": 28.5, "unit": "ng"},
      {"measurement": "SA-HRP uptake, Nuc.", "setting": "A498; A498, nuclear", "value": 12.4, "unit": "ng"},
      {"measurement": "SA-HRP uptake, Cyt.", "setting": "A549; A549, cytoplasmic", "value": 9.6, "unit": "ng"},
      {"measurement": "SA-HRP uptake, Nuc.", "setting": "A549; A549, nuclear", "value": 3.5, "unit": "ng"},
      {"measurement": "SA-HRP uptake, Cyt.", "setting": "A704; A704, cytoplasmic", "value": 10.9, "unit": "ng"},
      {"measurement": "SA-HRP uptake, Nuc.", "setting": "A704; A704, nuclear", "value": 1.8, "unit": "ng"},
      {"measurement": "SA-HRP uptake, Cyt.", "setting": "CAKI-1; CAKI-1, cytoplasmic", "value": 7.4, "unit": "ng"},
      {"measurement": "SA-HRP uptake, Nuc.", "setting": "CAKI-1; CAKI-1, nuclear", "value": 1.8, "unit": "ng"},
      {"measurement": "SA-HRP uptake, Cyt.", "setting": "CCRF-CEM; cytoplasmic", "value": 46.2, "unit": "ng"},
      {"measurement": "SA-HRP uptake, Nuc.", "setting": "CCRF-CEM; nuclear", "value": 1.8, "unit": "ng"},
      {"measurement": "SA-HRP uptake, Cyt.", "setting": "CHA-59; CHA-59, cytoplasmic", "value": 24.7, "unit": "ng"},
      {"measurement": "SA-HRP uptake, Nuc.", "setting": "CHA-59; CHA-59, nuclear", "value": 9.7, "unit": "ng"},
      {"measurement": "SA-HRP uptake, Cyt.", "setting": "COLO 205; COLO 205, cytoplasmic", "value": 2.9, "unit": "ng"},
      {"measurement": "SA-HRP uptake, Nuc.", "setting": "COLO 205; COLO 205, nuclear", "value": 0.9, "unit": "ng"},
      {"measurement": "SA-HRP uptake, Cyt.", "setting": "DU-145; DU-145, cytoplasmic", "value": 3.1, "unit": "ng"},
      {"measurement": "SA-HRP uptake, Nuc.", "setting": "DU-145; DU-145, nuclear", "value": "<0.04", "unit": "ng"},
      {"measurement": "SA-HRP uptake, Cyt.", "setting": "HCT-15; HCT-15, cytoplasmic", "value": 4.0, "unit": "ng"},
      {"measurement": "SA-HRP uptake, Nuc.", "setting": "HCT-15; HCT-15, nuclear", "value": 0.8, "unit": "ng"},
      {"measurement": "SA-HRP uptake, Cyt.", "setting": "HOP 18; HOP 18, cytoplasmic", "value": 16.6, "unit": "ng"},
      {"measurement": "SA-HRP uptake, Nuc.", "setting": "HOP 18; HOP 18, nuclear", "value": 8.1, "unit": "ng"},
      {"measurement": "SA-HRP uptake, Cyt.", "setting": "HOP 92; HOP 92, cytoplasmic", "value": 2.5, "unit": "ng"},
      {"measurement": "SA-HRP uptake, Nuc.", "setting": "HOP 92; HOP 92, nuclear", "value": 1.6, "unit": "ng"},
      {"measurement": "SA-HRP uptake, Cyt.", "setting": "HT-29; HT-29, cytoplasmic", "value": 6.1, "unit": "ng"},
      {"measurement": "SA-HRP uptake, Nuc.", "setting": "HT-29; HT-29, nuclear", "value": 7.7, "unit": "ng"},
      {"measurement": "SA-HRP uptake, Cyt.", "setting": "KM12; KM12, cytoplasmic", "value": 3.6, "unit": "ng"},
      {"measurement": "SA-HRP uptake, Nuc.", "setting": "KM12; KM12, nuclear", "value": 1.0, "unit": "ng"},
      {"measurement": "SA-HRP uptake, Cyt.", "setting": "Lewis Lung; cytoplasmic", "value": 8.6, "unit": "ng"},
      {"measurement": "SA-HRP uptake, Nuc.", "setting": "Lewis Lung; nuclear", "value": 7.2, "unit": "ng"},
      {"measurement": "SA-HRP uptake, Cyt.", "setting": "MCF 7; MCF 7, cytoplasmic", "value": 26.7, "unit": "ng"},
      {"measurement": "SA-HRP uptake, Nuc.", "setting": "MCF 7; MCF 7, nuclear", "value": 19.8, "unit": "ng"},
      {"measurement": "SA-HRP uptake, Cyt.", "setting": "NCI-H23; NCI-H23, cytoplasmic", "value": 10.8, "unit": "ng"},
      {"measurement": "SA-HRP uptake, Nuc.", "setting": "NCI-H23; NCI-H23, nuclear", "value": 6.6, "unit": "ng"},
      {"measurement": "SA-HRP uptake, Cyt.", "setting": "NCI-H460; NCI-H460, cytoplasmic", "value": 30.3, "unit": "ng"},
      {"measurement": "SA-HRP uptake, Nuc.", "setting": "NCI-H460; NCI-H460, nuclear", "value": 5.6, "unit": "ng"},
      {"measurement": "SA-HRP uptake, Cyt.", "setting": "NCI-H522; NCI-H522, cytoplasmic", "value": 9.1, "unit": "ng"},
      {"measurement": "SA-HRP uptake, Nuc.", "setting": "NCI-H522; NCI-H522, nuclear", "value": 3.7, "unit": "ng"},
      {"measurement": "SA-HRP uptake, Cyt.", "setting": "NHI-H322M; cytoplasmic", "value": 5.2, "unit": "ng"},
      {"measurement": "SA-HRP uptake, Nuc.", "setting": "NHI-H322M; nuclear", "value": 5.0, "unit": "ng"},
      {"measurement": "SA-HRP uptake, Cyt.", "setting": "OVCAR-3; OVCAR-3, cytoplasmic", "value": 2.4, "unit": "ng"},
      {"measurement": "SA-HRP uptake, Nuc.", "setting": "OVCAR-3; OVCAR-3, nuclear", "value": 4.6, "unit": "ng"},
      {"measurement": "SA-HRP uptake, Cyt.", "setting": "OVCAR-4; OVCAR-4, cytoplasmic", "value": 9.9, "unit": "ng"},
      {"measurement": "SA-HRP uptake, Nuc.", "setting": "OVCAR-4; OVCAR-4, nuclear", "value": 2.7, "unit": "ng"},
      {"measurement": "SA-HRP uptake, Cyt.", "setting": "OVCAR-5; OVCAR-5, cytoplasmic", "value": 2.7, "unit": "ng"},
      {"measurement": "SA-HRP uptake, Nuc.", "setting": "OVCAR-5; OVCAR-5, nuclear", "value": 1.2, "unit": "ng"},
      {"measurement": "SA-HRP uptake, Cyt.", "setting": "OVCAR-8; OVCAR-8, cytoplasmic", "value": 3.9, "unit": "ng"},
      {"measurement": "SA-HRP uptake, Nuc.", "setting": "OVCAR-8; OVCAR-8, nuclear", "value": 5.0, "unit": "ng"},
      {"measurement": "SA-HRP uptake, Cyt.", "setting": "RPMI 8226; RPMI 8226, cytoplasmic", "value": 6.5, "unit": "ng"},
      {"measurement": "SA-HRP uptake, Nuc.", "setting": "RPMI 8226; RPMI 8226, nuclear", "value": 0.0, "unit": "ng"},
      {"measurement": "SA-HRP uptake, Cyt.", "setting": "SHP-77; SHP-77, cytoplasmic", "value": 12.8, "unit": "ng"},
      {"measurement": "SA-HRP uptake, Nuc.", "setting": "SHP-77; SHP-77, nuclear", "value": 5.9, "unit": "ng"},
      {"measurement": "SA-HRP uptake, Cyt.", "setting": "SK-0V-3; SK-0V-3, cytoplasmic", "value": 2.0, "unit": "ng"},
      {"measurement": "SA-HRP uptake, Nuc.", "setting": "SK-0V-3; SK-0V-3, nuclear", "value": 0.4, "unit": "ng"},
      {"measurement": "SA-HRP uptake, Cyt.", "setting": "SN12C; cytoplasmic", "value": 10.6, "unit": "ng"},
      {"measurement": "SA-HRP uptake, Nuc.", "setting": "SN12C; nuclear", "value": 3.5, "unit": "ng"},
      {"measurement": "SA-HRP uptake, Cyt.", "setting": "SW-620; SW-620, cytoplasmic", "value": 3.2, "unit": "ng"},
      {"measurement": "SA-HRP uptake, Nuc.", "setting": "SW-620; SW-620, nuclear", "value": 0.7, "unit": "ng"},
      {"measurement": "SA-HRP uptake, Cyt.", "setting": "TK-10; TK-10, cytoplasmic", "value": 4.0, "unit": "ng"},
      {"measurement": "SA-HRP uptake, Nuc.", "setting": "TK-10; TK-10, nuclear", "value": 1.3, "unit": "ng"},
      {"measurement": "SA-HRP uptake, Cyt.", "setting": "WIDR; cytoplasmic", "value": 3.4, "unit": "ng"},
      {"measurement": "SA-HRP uptake, Nuc.", "setting": "WIDR; nuclear", "value": 0.7, "unit": "ng"}
    ]}
  ]
}
